In PubChem BioAssay (NCI):
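Five compound concentrations were applied to cells in 96-well plates for 48 hours; endpoints were derived by simple linear interpolation of the resulting dose-response curve. Here, GI50 denotes the concentration required for 50% inhibition of growth. TGI is the concentration that stops growth completely.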

Key:
Assay in all cases: NCI anticancer screen, dose series, 48 h
K-562 leukemia = tested on: K-562 leukemia
SW-620 colon = tested on: SW-620 colon
NCI-H226 lung = tested on: NCI-H226 lung
HCT-116 colon = tested on: HCT-116 colon
HCC-2998 colon = tested on: HCC-2998 colon
HOP-92 NSCLC = tested on: HOP-92 NSCLC
MDA-MB-468 breast = tested on: MDA-MB-468 breast
A549 NSCLC = tested on: A549 NSCLC
TK-10 renal = tested on: TK-10 renal
SF-295 CNS = tested on: SF-295 CNS
HL-60(TB) leukemia = tested on: HL-60(TB) leukemia
786-0 renal = tested on: 786-0 renal
UACC-257 melanoma = tested on: UACC-257 melanoma
HS 578T breast = tested on: HS 578T breast
LOX IMVI melanoma = tested on: LOX IMVI melanoma
KM12 colon = tested on: KM12 colon
NCI-H460 lung = tested on: NCI-H460 lung
MDA-MB-231 breast = tested on: MDA-MB-231 breast
COLO 205 colon = tested on: COLO 205 colon
A498 renal = tested on: A498 renal
OVCAR-8 ovarian = tested on: OVCAR-8 ovarian
NCI-H522 lung = tested on: NCI-H522 lung
NCI-H23 lung = tested on: NCI-H23 lung
SF-268 CNS = tested on: SF-268 CNS
HT29 colon = tested on: HT29 colon
ACHN renal = tested on: ACHN renal
OVCAR-5 ovarian = tested on: OVCAR-5 ovarian
SN12C renal = tested on: SN12C renal
UACC-62 melanoma = tested on: UACC-62 melanoma
PC-3 prostate = tested on: PC-3 prostate
SK-OV-3 ovarian = tested on: SK-OV-3 ovarian
MALME-3M melanoma = tested on: MALME-3M melanoma
MCF7 breast = tested on: MCF7 breast
RXF 393 renal = tested on: RXF 393 renal
HOP-62 NSCLC = tested on: HOP-62 NSCLC
OVCAR-3 ovarian = tested on: OVCAR-3 ovarian
OVCAR-4 ovarian = tested on: OVCAR-4 ovarian
MOLT-4 leukemia = tested on: MOLT-4 leukemia
RPMI-8226 leukemia = tested on: RPMI-8226 leukemia
MDA-MB-435 = tested on: MDA-MB-435
SNB-75 CNS = tested on: SNB-75 CNS
BT-549 breast = tested on: BT-549 breast
U251 CNS = tested on: U251 CNS
SNB-19 CNS = tested on: SNB-19 CNS
T-47D breast = tested on: T-47D breast
SF-539 CNS = tested on: SF-539 CNS
CCRF-CEM leukemia = tested on: CCRF-CEM leukemia
M14 melanoma = tested on: M14 melanoma
DU-145 prostate = tested on: DU-145 prostate
UO-31 renal = tested on: UO-31 renal
SK-MEL-2 melanoma = tested on: SK-MEL-2 melanoma
SK-MEL-5 melanoma = tested on: SK-MEL-5 melanoma
CAKI-1 renal = tested on: CAKI-1 renal
EKVX NSCLC = tested on: EKVX NSCLC
SK-MEL-28 melanoma = tested on: SK-MEL-28 melanoma
HCT-15 colon = tested on: HCT-15 colon
NCI/ADR-RES ovarian = tested on: NCI/ADR-RES ovarian
IGROV1 ovarian = tested on: IGROV1 ovarian

## COc1ccc(-c2cc(C(=O)N=Nc3c(O)[nH]c4ccc(Cl)cc34)c3ccccc3n2)cc1
K-562 leukemia
  GI50: 3.14 µM
  TGI: > 100 µM
SW-620 colon
  GI50: 3.09 µM
  TGI: 19.4 µM
NCI-H226 lung
  GI50: 14.3 µM
  TGI: 55.1 µM
HCT-116 colon
  GI50: 5.3 µM
  TGI: 63.7 µM
HCC-2998 colon
  GI50: 15 µM
  TGI: 31.4 µM
HOP-92 NSCLC
  GI50: 11.6 µM
  TGI: 32.9 µM
MDA-MB-468 breast
  GI50: 6.78 µM
  TGI: 25.9 µM
A549 NSCLC
  GI50: 5.56 µM
  TGI: 31.9 µM
TK-10 renal
  GI50: 23.9 µM
  TGI: 42.3 µM
SF-295 CNS
  GI50: 13.7 µM
  TGI: 29.4 µM
HL-60(TB) leukemia
  GI50: 9.57 µM
  TGI: > 100 µM
786-0 renal
  GI50: 19.8 µM
  TGI: 43.7 µM
UACC-257 melanoma
  GI50: 16.6 µM
  TGI: 32.6 µM
HS 578T breast
  GI50: 16.6 µM
  TGI: 69.2 µM
LOX IMVI melanoma
  GI50: 3.23 µM
  TGI: 13.3 µM
KM12 colon
  GI50: 21.6 µM
  TGI: 57.3 µM
NCI-H460 lung
  GI50: 11.5 µM
  TGI: 39.7 µM
MDA-MB-231 breast
  GI50: 5.13 µM
  TGI: 18.1 µM
COLO 205 colon
  GI50: 15 µM
  TGI: 35.3 µM
A498 renal
  GI50: 21 µM
  TGI: 36.1 µM
OVCAR-8 ovarian
  GI50: 10.2 µM
  TGI: 35.9 µM
NCI-H522 lung
  GI50: 16.5 µM
  TGI: 39.4 µM
NCI-H23 lung
  GI50: 6.43 µM
  TGI: 30.8 µM
SF-268 CNS
  GI50: 16.2 µM
  TGI: 37.6 µM
HT29 colon
  GI50: 4.63 µM
  TGI: 31.2 µM
ACHN renal
  GI50: 10.1 µM
  TGI: 23.2 µM
OVCAR-5 ovarian
  GI50: 12.2 µM
  TGI: 26.4 µM
SN12C renal
  GI50: 13.9 µM
  TGI: 32 µM
UACC-62 melanoma
  GI50: 14.8 µM
  TGI: 30.4 µM
PC-3 prostate
  GI50: 12 µM
  TGI: > 100 µM
SK-OV-3 ovarian
  GI50: 15.8 µM
  TGI: 33.1 µM
MALME-3M melanoma
  GI50: 14.4 µM
  TGI: 28.5 µM
MCF7 breast
  GI50: 5.32 µM
  TGI: 28.2 µM
RXF 393 renal
  GI50: 12.1 µM
  TGI: 25.7 µM
HOP-62 NSCLC
  GI50: 3.96 µM
  TGI: 25.7 µM
OVCAR-3 ovarian
  GI50: 11.8 µM
  TGI: 26.4 µM
OVCAR-4 ovarian
  GI50: 13 µM
  TGI: 43.3 µM
MOLT-4 leukemia
  GI50: 3.88 µM
  TGI: > 100 µM
RPMI-8226 leukemia
  GI50: 14.7 µM
  TGI: > 100 µM
MDA-MB-435
  GI50: 14.8 µM
  TGI: 30.7 µM
SNB-75 CNS
  GI50: 12.9 µM
  TGI: 27.6 µM
BT-549 breast
  GI50: 22 µM
  TGI: 43 µM
U251 CNS
  GI50: 3.57 µM
  TGI: 16.2 µM
SNB-19 CNS
  GI50: 17.4 µM
  TGI: 32 µM
T-47D breast
  GI50: 11.8 µM
  TGI: 42.3 µM
SF-539 CNS
  GI50: 15.5 µM
  TGI: 29.8 µM
CCRF-CEM leukemia
  GI50: 3.32 µM
  TGI: > 100 µM
M14 melanoma
  GI50: 11 µM
  TGI: 41.9 µM
DU-145 prostate
  GI50: 15.3 µM
  TGI: 29.7 µM
UO-31 renal
  GI50: 11.5 µM
  TGI: 24.1 µM
SK-MEL-2 melanoma
  GI50: 19.3 µM
  TGI: 35.8 µM
SK-MEL-5 melanoma
  GI50: 15.5 µM
  TGI: 30.8 µM
CAKI-1 renal
  GI50: 11.7 µM
  TGI: 26.4 µM
EKVX NSCLC
  GI50: 11.4 µM
  TGI: 27.1 µM
SK-MEL-28 melanoma
  GI50: 14.7 µM
  TGI: 30 µM
HCT-15 colon
  GI50: 2810 nM
  TGI: 10.2 µM
NCI/ADR-RES ovarian
  GI50: 12 µM
  TGI: 47.3 µM
IGROV1 ovarian
  GI50: 13.1 µM
  TGI: 30.1 µM
